Results as given in BindingDB's records for doi:10.1021/jm00039a015 (Abbott Laboratories, 1994).

Molecular target: Platelet-activating factor receptor (Oryctolagus cuniculus)
Test: Antagonist activity against platelet activating factor (PAF) receptor in rabbit platelet membranes using [3H]C18-PAF as radioligand

Ki: 10 nM
Compound: O=C(c1cn(C(=O)N2CCOCC2)c2cc(OCc3ccccc3)ccc12)[C@@H]1CSC(c2cccnc2)N1 (stereo partly drawn) [[6-Benzyloxy-3-((R)-2-pyridin-3-yl-thiazolidine-4-carbonyl)-indol-1-yl]-morpholin-4-yl-methanone]
